Laboratory results: the supplement of paper PMC11061612

Legend:
Test in all cases: Bliss excess, mean over the matrix (fraction); higher = more synergy
[1] = system: 23132-87 (Gastric Carcinoma)
How it was run: (§1)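 Bliss excess equals the observed combination effect minus the expected value EA + EB − EA·EB, where EA and EB are the effects of each agent alone. Combination Emax is the second-highest inhibition within the matrix. Inhibition was scaled from CellTiter-Glo 2.0 luminescence, with 0 set by vehicle wells and 1 by blank wells, after 72 hours of two-drug dosing of cells plated in 1536-well plates.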

[2] = system: COLO-680N (Esophageal Squamous Cell Carcinoma)
How it was run: as §1

[3] = system: FADU (Head and Neck Carcinoma)
How it was run: as §1

[4] = system: GP5d (Colorectal Carcinoma)
How it was run: as §1

[5] = system: LK-2 (Squamous Cell Lung Carcinoma)
How it was run: as §1

[6] = system: LN-229 (Glioblastoma)
How it was run: as §1

[7] = system: LXF-289 (Lung Adenocarcinoma)
How it was run: as §1

[8] = system: MFE-280 (Endometrial Carcinoma)
How it was run: as §1

[9] = system: MKN45 (Gastric Carcinoma)
How it was run: as §1

[10] = system: NCI-H23 (Lung Adenocarcinoma)
How it was run: as §1

[11] = system: OPM-2 (Plasma Cell Myeloma)
How it was run: as §1

[12] = system: PANC-03-27 (Pancreatic Carcinoma)
How it was run: as §1

[13] = system: PC-3_[JPC-3] (Lung Adenocarcinoma)
How it was run: as §1

[14] = system: RCM-1 (Colorectal Carcinoma)
How it was run: as §1

[15] = system: RKN (Other Solid Carcinomas)
How it was run: as §1

[16] = system: SF268 (Low Grade Glioma)
How it was run: as §1

[17] = system: SU-DHL-10 (B-Cell Non-Hodgkin's Lymphoma)
How it was run: as §1

[18] = system: TE-8 (Esophageal Squamous Cell Carcinoma)
How it was run: as §1

[19] = system: VAL (B-Cell Non-Hodgkin's Lymphoma)
How it was run: as §1

[20] = system: WM793B (Melanoma)
How it was run: as §1

Compound | Bliss excess [1] | Bliss excess [2] | Bliss excess [3] | Bliss excess [4] | Bliss excess [5] | Bliss excess [6] | Bliss excess [7] | Bliss excess [8] | Bliss excess [9] | Bliss excess [10] | Bliss excess [11] | Bliss excess [12] | Bliss excess [13] | Bliss excess [14] | Bliss excess [15] | Bliss excess [16] | Bliss excess [17] | Bliss excess [18] | Bliss excess [19] | Bliss excess [20]
CC1(C)CCC(CN2CCN(c3ccc(C(=O)NS(=O)(=O)c4ccc(NCC5CCOCC5)c([N+](=O)[O-])c4)c(Oc4cnc5[nH]ccc5c4)c3)CC2)=C(c2ccc(Cl)cc2)C1 [Venetoclax] + C=CCn1c(=O)c2cnc(Nc3ccc(N4CCN(C)CC4)cc3)nc2n1-c1cccc(C(C)(C)O)n1 [AZD1775] (first compound max 1 µM, partner max 1 µM) | -0.0277 | -0.0402 | -0.0282 | -0.0561 | 0.012 | -0.0083 | -0.0515 | 0.0767 | -0.0402 | -0.0533 | 0.0966 | 0.035 | -0.0736 | 0.0294 | -0.0729 | -0.0218 | -0.018 | -0.0071 | 0.0103 | 0.0101
CC1(C)CCC(CN2CCN(c3ccc(C(=O)NS(=O)(=O)c4ccc(NCC5CCOCC5)c([N+](=O)[O-])c4)c(Oc4cnc5[nH]ccc5c4)c3)CC2)=C(c2ccc(Cl)cc2)C1 [Venetoclax] + CCN(CCO)CCCOc1ccc2c(Nc3cc(CC(=O)Nc4cccc(F)c4)[nH]n3)ncnc2c1 [AZD2811] (first compound max 1 µM, 7x7, partner max 1 µM) | -0.0136 | -0.0166 | 0.0341 | -0.0235 | 0.0197 | -0.014 | -0.0678 | 0.0557 | -0.066 | -0.0051 | 0.085 | -0.028 | -0.095 | -0.0144 | -0.011 | 0.0342 | -0.0844 | 0.0482 | 0.0158 | 0.0206
CC1(C)CCC(CN2CCN(c3ccc(C(=O)NS(=O)(=O)c4ccc(NCC5CCOCC5)c([N+](=O)[O-])c4)c(Oc4cnc5[nH]ccc5c4)c3)CC2)=C(c2ccc(Cl)cc2)C1 [Venetoclax] + CN(C)CCCOc1ccc(-c2ccc3ncc4c(c3c2)n(C2CCOCC2)c(=O)n4C)cn1 [AZD0156] (first compound max 1 µM, 7x7, partner max 1 µM) | -0.0015 | -0.014 | 0.0088 | -0.0274 | 0.02 | -0.007 | -0.0157 | 0.0338 | -0.095 | -0.0114 | 0.0271 | -0.0876 | -0.103 | -0.0086 | -0.0862 | 0.0022 | -0.0043 | -0.0574 | 0.0308 | -0.0499
CC1(C)CCC(CN2CCN(c3ccc(C(=O)NS(=O)(=O)c4ccc(NCC5CCOCC5)c([N+](=O)[O-])c4)c(Oc4cnc5[nH]ccc5c4)c3)CC2)=C(c2ccc(Cl)cc2)C1 [Venetoclax] + COc1cc(Nc2ncc3c(n2)-c2ccc(Cl)cc2C(c2c(F)cccc2OC)=NC3)ccc1C(=O)O [Alisertib] (first compound max 1 µM, 7x7, partner max 10 µM) | -0.0303 | -0.0427 | 0.0252 | 0.0453 | -0.035 | -0.041 | -0.0953 | -0.0266 | -0.0645 | 0.14 | 0.272 | -0.0236 | -0.0502 | -0.0717 | -0.0516 | 0.0151 | 0.0409 | 0.0171 | 0.0174 | -0.0223
CC1(C)CCC(CN2CCN(c3ccc(C(=O)NS(=O)(=O)c4ccc(NCC5CCOCC5)c([N+](=O)[O-])c4)c(Oc4cnc5[nH]ccc5c4)c3)CC2)=C(c2ccc(Cl)cc2)C1 [Venetoclax] + C[C@@H]1COCCN1C2=NC(=NC(=C2)C3(CC3)[S@](=N)(=O)C)C4=C5C=CNC5=NC=C4 [AZD6738] (first compound max 1 µM, 7x7, partner max 10 µM) | -0.0422 | -0.0004 | 0.0467 | -0.0657 | -0.0205 | -0.0601 | -0.0138 | -0.0486 | -0.0526 | 0.0157 | -0.0462 | -0.0556 | -0.0438 | -0.0542 | -0.058 | -0.0723 | 0.0138 | -0.0603 | 0.004 | -0.0044
CC1(C)CCC(CN2CCN(c3ccc(C(=O)NS(=O)(=O)c4ccc(NCC5CCOCC5)c([N+](=O)[O-])c4)c(Oc4cnc5[nH]ccc5c4)c3)CC2)=C(c2ccc(Cl)cc2)C1 [Venetoclax] + C[C@@H](Nc1cc(F)cc(F)c1)c1cc(C(=O)N(C)C)cc2c(=O)cc(N3CCOCC3)oc12 [AZD8186] (first compound max 1 µM, 7x7, partner max 3 µM) | -0.036 | -0.0276 | -0.0291 | -0.0188 | -0.0234 | -0.0267 | -0.0008 | -0.0525 | -0.057 | 0.007 | -0.0134 | -0.0415 | -0.0326 | -0.0495 | -0.0289 | -0.0353 | 0.0052 | -0.0522 | 0.0557 | -0.016
CC1(C)CCC(CN2CCN(c3ccc(C(=O)NS(=O)(=O)c4ccc(NCC5CCOCC5)c([N+](=O)[O-])c4)c(Oc4cnc5[nH]ccc5c4)c3)CC2)=C(c2ccc(Cl)cc2)C1 [Venetoclax] + Cc1cc2ncnn2cc1Nc1ncc2c(n1)n(C1CCOCC1)c(=O)n2C [AZD7648] (first compound max 1 µM, 7x7, partner max 10 µM) | -0.0008 | -0.0293 | -0.0241 | -0.0119 | 0.0102 | -0.0174 | -0.0935 | -0.0773 | -0.0576 | -0.0172 | -0.0263 | -0.043 | -0.0445 | -0.0533 | -0.062 | -0.0146 | -0.0139 | -0.0121 | 0.012 | 0.0156
CC1(C)CCC(CN2CCN(c3ccc(C(=O)NS(=O)(=O)c4ccc(NCC5CCOCC5)c([N+](=O)[O-])c4)c(Oc4cnc5[nH]ccc5c4)c3)CC2)=C(c2ccc(Cl)cc2)C1 [Venetoclax] + Cn1cnc2c(F)c(Nc3ccc(Br)cc3Cl)c(C(=O)NOCCO)cc21 [Selumetinib] (first compound max 1 µM, 7x7, partner max 3 µM) | -0.0507 | -0.0243 | 0.0212 | 0.01 | -0.0073 | -0.0372 | -0.0312 | -0.0138 | -0.0574 | -0.0208 | -0.0093 | 0.0047 | -0.0715 | -0.0369 | -0.0034 | -0.0355 | -0.0123 | -0.0282 | -0.0069 | -0.0191
